From paper PMC8767786 (Nature structural & molecular biology, 2021)

Molecular target: T1, TRPM5 (Danio rerio, UniProt S5UH55)
T1 sequence (S5UH55 1-1165): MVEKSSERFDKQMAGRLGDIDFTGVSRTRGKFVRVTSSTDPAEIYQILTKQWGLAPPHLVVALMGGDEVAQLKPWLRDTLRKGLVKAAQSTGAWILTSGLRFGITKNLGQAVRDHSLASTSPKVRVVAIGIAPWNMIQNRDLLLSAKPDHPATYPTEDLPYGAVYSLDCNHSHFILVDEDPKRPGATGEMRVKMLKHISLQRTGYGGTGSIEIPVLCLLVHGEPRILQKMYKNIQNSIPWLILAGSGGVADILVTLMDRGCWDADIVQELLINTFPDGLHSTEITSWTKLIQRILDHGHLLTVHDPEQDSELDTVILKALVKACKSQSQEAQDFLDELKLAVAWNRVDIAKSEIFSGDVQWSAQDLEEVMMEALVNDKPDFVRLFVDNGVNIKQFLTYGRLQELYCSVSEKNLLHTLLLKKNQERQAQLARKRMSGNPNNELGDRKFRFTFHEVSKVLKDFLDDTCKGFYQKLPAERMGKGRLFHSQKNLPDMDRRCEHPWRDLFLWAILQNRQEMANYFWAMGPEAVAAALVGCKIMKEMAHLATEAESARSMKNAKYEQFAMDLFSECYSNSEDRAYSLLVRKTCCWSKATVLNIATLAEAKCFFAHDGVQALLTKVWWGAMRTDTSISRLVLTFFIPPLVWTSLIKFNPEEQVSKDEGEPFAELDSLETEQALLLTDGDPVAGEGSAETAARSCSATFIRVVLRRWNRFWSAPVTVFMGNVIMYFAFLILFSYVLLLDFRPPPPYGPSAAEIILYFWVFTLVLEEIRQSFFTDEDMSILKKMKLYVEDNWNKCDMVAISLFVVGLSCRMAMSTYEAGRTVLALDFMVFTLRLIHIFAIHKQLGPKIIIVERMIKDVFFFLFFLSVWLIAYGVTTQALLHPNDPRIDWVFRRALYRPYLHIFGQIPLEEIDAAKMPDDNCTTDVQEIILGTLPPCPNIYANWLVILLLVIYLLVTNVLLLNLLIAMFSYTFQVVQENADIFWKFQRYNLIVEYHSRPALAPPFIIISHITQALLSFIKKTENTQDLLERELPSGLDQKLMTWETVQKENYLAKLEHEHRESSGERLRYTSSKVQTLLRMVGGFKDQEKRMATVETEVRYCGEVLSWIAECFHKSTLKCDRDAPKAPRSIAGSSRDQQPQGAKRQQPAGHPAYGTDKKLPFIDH
Assay: cryo-EM structure
Format: cell-based

Compound `COc1ccc(C=NNC(=O)Cc2cccc3ccccc23)cc1OC` [NDNA, N’-(3,4-dimethoxybenzylidene)-2-(naphthalen-1-yl)acetohydrazide] has an IC50 of roughly 2.4 nM.
